Experimental data taken from paper PMC5201303, “Comparison of Enzymatic Traits between Native and Recombinant Glycine Sarcosine N-Methyltransferase from Methanohalophilus portucalensis FDF1^T” (PLoS ONE, 2016).

Columns and labels:
[1] = target: T1, native GSMT (glycine sarcosine N-methyltransferase) (Methanohalophilus portucalensis, UniProt F6KV61); assay: radiometric [methyl-3H]-SAM methyl transfer, charcoal separation; assay type: biochemical; settings: read-out: I50
T1 construct: monomer and dimer fractions pooled
T1 sequence (F6KV61 1-263): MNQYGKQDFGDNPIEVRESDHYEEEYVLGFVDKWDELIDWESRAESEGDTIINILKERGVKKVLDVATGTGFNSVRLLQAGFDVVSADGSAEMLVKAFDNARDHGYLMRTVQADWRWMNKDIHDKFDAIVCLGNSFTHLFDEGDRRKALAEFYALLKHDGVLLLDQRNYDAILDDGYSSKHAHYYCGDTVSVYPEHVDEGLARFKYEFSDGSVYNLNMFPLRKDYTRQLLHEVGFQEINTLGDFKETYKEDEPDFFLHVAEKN

[2] = target: T1, native GSMT (glycine sarcosine N-methyltransferase); assay: as above; assay type: biochemical

For `Nc1ncnc2c1ncn2[C@@H]1O[C@H](CSCC[C@H](N)C(=O)O)[C@@H](O)[C@H]1O` [SAH, S-adenosylhomocysteine], which IC50 [1] is on record?
The IC50 was 50 µM.

With `C[N+](C)(C)CC(=O)[O-]` [betaine] as the compound, how does the remaining activity at 1 M [2] read?
Its remaining activity at 1 M is 43%.
